Consider 1 compound from ChEMBL document CHEMBL4346735, “Discovery and pharmacological evaluation of indole derivatives as potent and selective RORγt inverse agonist for multiple autoimmune conditions” (Bioorg Med Chem Lett, 2019).

Molecules are shown by their SMILES.

Data set [1] is described as follows: Metabolic stability in simulated intestinal fluid assessed as compound remaining after 15 mins. To be noted: read-out: Stability. The class given is ADME.
Data set [2] can be described thus: Half life in mouse at 3 mg/kg, iv. It counts as ADME, organism-based. To be noted: in vivo.
The subject of data set [3] is Mus musculus. Put plainly: Immunosuppressive activity in MOG (35 to 55 residues)/pertussis toxin-induced experimental allergic encephalomyelitis C57BL/6J mouse model assessed as reduction in IL-17A gene expression in spinal cord at 30 mg/kg, po bid measured at day 23 post MOG immunization/pertusis immunization relative to control. To be noted: 552 h. It counts as functional.

A short description of data set [4]: Volume of distribution at steady state in mouse at 3 mg/kg, iv. It counts as ADME, organism-based. To be noted: in vivo, read-out: Vdss.
Data set [5] has as its target T1, Nuclear receptor ROR-alpha (Homo sapiens, UniProt P35398).
T1 sequence (P35398 whole entry): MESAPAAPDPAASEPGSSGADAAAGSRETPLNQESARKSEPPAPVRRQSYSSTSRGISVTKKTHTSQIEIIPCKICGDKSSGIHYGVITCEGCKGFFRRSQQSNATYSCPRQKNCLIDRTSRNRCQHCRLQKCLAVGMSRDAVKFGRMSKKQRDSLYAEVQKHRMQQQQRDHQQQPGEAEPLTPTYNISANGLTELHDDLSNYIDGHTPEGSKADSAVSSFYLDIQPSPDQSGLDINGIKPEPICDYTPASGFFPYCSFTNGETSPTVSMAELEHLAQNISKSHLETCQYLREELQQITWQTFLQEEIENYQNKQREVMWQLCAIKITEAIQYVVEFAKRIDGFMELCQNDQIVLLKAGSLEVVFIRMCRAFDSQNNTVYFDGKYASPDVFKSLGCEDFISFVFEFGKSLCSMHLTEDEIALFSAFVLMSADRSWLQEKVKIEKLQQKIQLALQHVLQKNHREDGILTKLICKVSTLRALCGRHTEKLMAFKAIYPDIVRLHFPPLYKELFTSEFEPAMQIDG
Put plainly: Inhibition of GAL4-DBD fused RORalpha LBD (unknown origin) expressed in HEK293T cells. The class given is cell-based.

A short description of data set [6]: Metabolic stability in rat hepatocytes assessed as parent compound remaining after 60 mins. To be noted: read-out: Stability. It counts as ADME, cell-based, Hepatocyte.
The nature of data set [7]: Metabolic stability in simulated gastric fluid assessed as compound remaining after 15 mins. It counts as ADME. To be noted: read-out: Stability.
Data set [8] can be described thus: AUC in mouse skin at 10 mg/kg, po. It counts as ADME, organism-based, Zone of skin.
Data set [9] relates to Mus musculus. Put plainly: Immunosuppressive activity in MOG (35 to 55 residues)/pertussis toxin-induced experimental allergic encephalomyelitis C57BL/6J mouse model assessed as reduction in CCR6 gene expression in spinal cord at 30 mg/kg, po bid measured at day 23 post MOG immunization/pertusis immunization relative to control. It counts as functional. To be noted: 552 h.

A short description of data set [10]: Metabolic stability in dog hepatocytes assessed as parent compound remaining after 60 mins. It counts as ADME, cell-based, Canis lupus familiaris, Hepatocyte. To be noted: read-out: Stability.
Data set [11] in a line: Metabolic stability in simulated intestinal fluid assessed as compound remaining after 60 mins. The class given is ADME. To be noted: read-out: Stability.
The nature of data set [12]: Tmax in mouse at 10 mg/kg, po. The class given is ADME, organism-based. To be noted: in vivo.
Data set [13] deals with Mus musculus. Description: Immunosuppressive activity in MOG (35 to 55 residues)/pertussis toxin-induced experimental allergic encephalomyelitis C57BL/6J mouse model assessed as reduction in disease severity score at 10 mg/kg, po bid measured at day 23 relative to dexamethasone. It counts as functional. To be noted: 552 h.
Data set [14] has as its system Mus musculus. Put plainly: Immunosuppressive activity in MOG (35 to 55 residues)/pertussis toxin-induced experimental allergic encephalomyelitis C57BL/6J mouse model assessed as reduction in disease severity score at 3 mg/kg, po bid measured at day 23 relative to dexamethasone. It counts as functional. To be noted: 552 h.
The subject of data set [15] is Mus musculus. Description: Immunosuppressive activity in MOG (35 to 55 residues)/pertussis toxin-induced experimental allergic encephalomyelitis C57BL/6J mouse model assessed as reduction in CCR6 gene expression in spinal cord at 30 mg/kg, po bid measured at day 19 post MOG immunization/pertusis immunization relative to control. The class given is functional. To be noted: 456 h.

As for `O=C(O)c1ccc(-n2cc(C(=O)c3c(Cl)cccc3Cl)c3cccc(F)c32)cc1`, the remaining at […] was 100% in data set [1] and 84% in data set [7]. For the same compound, the half-life in data set [2] was 2.4 h. In addition, the values for the inhibition in vivo at 30 mg/kg in [3], in data set [9] and in data set [15] were 43%, 36% and 60%, respectively. Also, the Vd in data set [4] was determined as 4.8 L/kg. In data set [5], this compound showed an IC50 above 10 µM. Also, the remaining at 1 h is 57% in data set [6], 51% in data set [10] and 100% in [11]. The compound further showed an exposure (AUC) in data set [8] of 11 µM·h. The time to peak (Tmax) in [12] was 0.5 h. Also, the inhibition in vivo at 10 mg/kg in data set [13] amounted to 31%. Moreover, the inhibition in vivo at 3 mg/kg in [14] was determined as 25%.
